This assay has as its system LRF (luteinizing hormone releasing factor) induced luteinizing hormone (LH) release. Put plainly: LRF antagonist activity in vitro, rat anterior pituitary cell cultures (Vale et al.). The class given is cell-based. The conditions noted are these: LRF alone. From the text: Hexapeptides of this invention were screened for LRF antagonist activity in vitro using rat anterior pituitary cell cultures as described by Vale et. al. [Endocrinology, 91, 562 (1972)]. The inhibition of LRF (luteinizing hormone releasing factor) induced luteinizing hormone (LH) release into the culture medium is the endpoint in this in vitro bioassay.

Values joined by “and” are separate entries in the source; they are usually repeats but may differ in a detail not shown here. Equal values may be shown once. No end group written: not given here.

“LRF Control: luteinizing hormone releasing factor, also referred to as luteinizing hormone releasing hormone, LH-RH; stimulus in the bioassay (QHWSYGLRPG; ends and bridges not checked; UniProt P01148 24-33, looked up)”: the “LH Value” (Molar Conc. 2.5×10^-10) is 38.98 ng/mL; the “LH Value” (Molar Conc. 3.5×10^-10) is 35.60 ng/mL and 49.99 ng/mL and 41.70 ng/mL and 64.13 ng/mL; the “LH Value” (Molar Conc. 5×10^-10) was 63.61 ng/mL.

Source of the values: patent US4075189A, “Hexapeptides” (Parke, Davis & Company, priority 1976, dated 1978).
